Results: US9539237B2, “Compositions and methods for drug-sensitization or inhibition of a cancer cell” (The Texas A&M University System, priority 2012, dated 2017)

Experiments:
[1] = tested on: CHOP-sensitive CRL2631 cells; assay: Prevention of the emergence of CHOP resistance in CRL2631 cells; assay type: cell-based, human; conditions: half (0.5×) and full (1×) doses of CHOP, one week treatment
Method: The ability of rifabutin to prevent the emergence of CHOP-resistance was determined by treating CHOP-sensitive CRL2631 cells with either CHOP alone or CHOP+rifabutin for one week. Following treatment, the cells were grown in the absence of CHOP, then their sensitivity to CHOP was assayed by retreatment with CHOP, followed by counting of viable cells. […] A 1× CHOP dose in this experiment corresponds to final concentrations of the following components: 0.83 μM 4-hydroxycyclophosphamide [4HC, a pre-activated form of cyclophosphamide], 0.057 μM doxorubicin, 0.01 μM vincristine, and 0.186 μM prednisone.

[2] = tested on: G3 CHOP-resistant NHL cells; assay: G3 tumor efficacy studies in SCID mice; assay type: in vivo
Method: In a first efficacy study, 6-8 week old female SCID mice (7 mice per treatment arm) were injected subcutaneously on both flanks with 1×10^7 G3 CHOP-resistant NHL cells. Once palpable tumors (about […] size) appeared, therapies (CHOP or CHOP+rifabutin) were started. CHOP was administered at the maximum tolerated dose (cyclophosphamide, 40 mg/kg i.v.; doxorubicin, 3.3 mg/kg i.v.; vincristine, 0.5 mg/kg i.v.; and prednisone, 0.2 mg/kg orally daily for 5 d) weekly for 3 weeks. Rifabutin in an amount of 100 mg/kg was administered on the day of each CHOP treatment and 24-hours later by gavage. Mouse body weight and tumor size were monitored every two days and tumor size measured by caliper. The tumor volume formula (L*W*W)/2 was used to calculate tumor mass.
A second efficacy study was conducted where mice were treated before the appearance of palpable tumors. In that experiment, one week after transplantation of CHOP-resistant G3 cells, one group (7 mice) was treated with CHOP-only and a second group (8 mice) was treated with CHOP+rifabutin.
A third study was conducted in which mice injected with CHOP-resistant G3 cells received reduced dosages of CHOP in combination with 33 mg/kg rifabutin. CHOP+rifabutin was administered weekly beginning one week post-inoculation. Control mice were given no CHOP or rifabutin.
SCID mice were injected with CHOP-resistant G3 cells in the same manner as the first efficacy study above. Treatments began 2 weeks post-inoculation and were administered twice weekly.

SMILES: CO[C@H]1/C=C/O[C@@]2(C)Oc3c(C)c(O)c4c(c3C2=O)C2=NC3(CCN(CC(C)C)CC3)NC2=C(NC(=O)/C(C)=C\C=C\[C@H](C)[C@H](O)[C@@H](C)[C@@H](O)[C@@H](C)[C@H](OC(C)=O)[C@@H]1C)C4=O [Rifabutin, rifabutin]
- Emergence of CHOP-resistant cells [1]: significantly repress
- Overall tumor burden per mouse versus CHOP only ([2]; first study, CHOP at maximum tolerated dose weekly for 3 weeks + rifabutin 100 mg/kg by gavage): much lower
- Tumor load versus untreated mice ([2]; third study, reduced dosages of CHOP + 33 mg/kg rifabutin weekly): significantly less
